Experimental data reported in publication PMC8804135 (Neurotherapeutics, 2021).
Numbered stars: 1 amine (or outer) side, 2 acyl side, 3 side chain; on linkers, the order of the positions; unused ones are H or OH. Bridge positions count the residues as written; N and C are the ends. Square brackets hold non-standard residues; d marks the D form. Peptide text beside a SMILES is read from it. dAbu(3S-yl) = C[C@@H]([C@@H](N[*:1])C(=O)[*:2])[*:3]; pGlu = O=C1CC[C@@H](C(=O)O)N1

Columns and labels:
[1] = Hydrophobicity and solubility of the peptide for intranasal formulation; type: physicochemical; settings: in 10% (2-hydroxypropyl)-ß-cyclodextrin (HBC)
Description: For intranasal delivery, 1 mg of M89b was first dissolved in 566 µl 2,2,2-trifluorethanol, 566 µl 10% (2-hydroxypropyl)-ß-cyclodextrin (HBC), and 1 µl acetic acid and incubated at 60 °C for 20 min. Another 566 µl of 10% HBC were added. The peptide was then dried in a speed-vac, and the dried pellet was dissolved in 1132 µl water by vortexing and incubation at 60 °C. M871 and GALP were purchased from GL Biochem. M871 was dissolved in saline containing 10% HBC. GALP was dissolved in saline containing 5% α-cyclodextrin.

GAL1R [2] = biological target: T1, GAL1R (Homo sapiens, UniProt P47211); experiment: SRE luciferase reporter assay, GAL1R-transfected HEK293 Gqi cells; settings: transiently transfected HEK293 Gqi cells; up to 10 µM, 5 h
T1 sequence (P47211 1-349): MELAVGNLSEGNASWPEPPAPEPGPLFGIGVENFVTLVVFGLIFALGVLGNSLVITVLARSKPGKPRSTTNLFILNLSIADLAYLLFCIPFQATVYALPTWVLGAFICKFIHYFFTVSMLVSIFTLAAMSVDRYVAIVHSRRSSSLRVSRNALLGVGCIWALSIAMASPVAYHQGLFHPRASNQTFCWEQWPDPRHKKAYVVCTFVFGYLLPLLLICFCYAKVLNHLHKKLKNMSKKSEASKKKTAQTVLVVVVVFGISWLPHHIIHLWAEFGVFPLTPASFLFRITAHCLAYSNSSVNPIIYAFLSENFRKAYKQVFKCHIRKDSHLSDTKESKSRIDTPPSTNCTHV

GAL2R [3] = biological target: T2, GAL2R (Homo sapiens, UniProt O43603); experiment: Fluo-4 Direct calcium assay (Ca efflux) in HEK293 cells overexpressing GAL2R; type: cell-based; settings: Table 3; HEK293 cells stably overexpressing GAL2R; Fluo-4, from 10 µM; (average) ratio, (n) in cell = number of assays; NA = ratio above 1000
T2 sequence (O43603 1-387): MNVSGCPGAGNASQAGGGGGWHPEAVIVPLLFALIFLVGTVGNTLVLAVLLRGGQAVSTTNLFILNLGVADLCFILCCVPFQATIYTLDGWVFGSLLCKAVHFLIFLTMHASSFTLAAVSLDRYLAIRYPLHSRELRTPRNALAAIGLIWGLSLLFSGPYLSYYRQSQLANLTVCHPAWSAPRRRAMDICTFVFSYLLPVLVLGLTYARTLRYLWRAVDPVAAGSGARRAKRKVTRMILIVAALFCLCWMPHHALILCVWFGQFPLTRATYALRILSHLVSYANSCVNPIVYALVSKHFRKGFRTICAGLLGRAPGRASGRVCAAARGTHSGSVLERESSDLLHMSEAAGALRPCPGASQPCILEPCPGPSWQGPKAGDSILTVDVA
Description: Calcium efflux was measured by using a Fluo-4 Direct Calcium Assay purchased from Thermo Fisher Scientific. HEK293 cells with stable overexpression of GAL2R (HEKR2) (kindly provided by Harald Dargatz, Molecular, Cellular and Pharmacobiology Section, Institute of Pharmaceutical Biology, University of Bonn, 53,115 Bonn, Germany) were used for analysis of the lanthipeptides. HEKR2 cells were seeded in a 96-well plate and grown overnight in DMEM supplemented with 10% FBS, 1% penicillin–streptomycin, 100 µg/ml Normocin, and 500 µg/ml G418 at 37 °C, 5% CO2 in a humidified incubator.
The next day, when the cells were nearly confluent, an equal amount of 2 × Fluo-4 Direct™ calcium reagent loading solution, containing 5 mM probenecid, was added to the wells, and the plate was incubated for 1 h at 37 °C. A serial 3 × dilution of the agonist compound in water was made, and 10 µl of the serial dilutions was applied to the cells in duplicate. The starting concentration of agonist in the assay was 10 µM. After 1–2 h of incubation at room temperature, the fluorescence was measured with excitation at 485/20 nm and emission at 528/20 nm with a Synergy HT Biotek reader.

GAL2R [4] = biological target: T2, GAL2R; experiment: PathHunter eXpress β-arrestin recruitment assay, GAL2R; type: cell-based; design: expressed in transfected cells; settings: Table 3; CHO-K1 cells co-expressing GAL2R and β-arrestin 2; 10 µM to 5 nM; (average) ratio, (n) in cell = number of assays; NA = ratio above 1000
Description: (§1) To evaluate the ability of lanthipeptides to recruit ß-arrestins via GAL1R or via GAL2R, we used the PathHunter® eXpress GAL1R, CHO-K1, β-arrestin GPCR Assay and the PathHunter® eXpress GAL2R, CHO-K1, β-arrestin, GPCR Assay from Eurofins-DiscoverX. The assays were performed according to the manufacturer’s instructions. Briefly, for one assay, CHO-K1 cells co-expressing GAL1R or GAL2R and β-arrestin (isoform 2) were diluted in AssayComplete™ Cell Plating Reagent, and 100 µl was seeded into each well of a 96-well plate. The plate was incubated at 37 °C, 5% CO2 in a humidified incubator. A serial 3 × dilution of the lanthipeptides in water was made (10 µM to 5 nM). After 48 h of incubation, 10 µl of the serial dilutions was applied to the cells in duplicate. The agonists were incubated for 90 min at 37 °C. Next, 55 µL of Working Detection Solution was added, and after 1 h of incubation at room temperature in the dark, the chemiluminescent signal was read with a Synergy HT Biotek reader.

GAL1R [5] = biological target: T1, GAL1R; experiment: PathHunter eXpress β-arrestin recruitment assay, GAL1R; type: cell-based; design: expressed in transfected cells; settings: Table 3; CHO-K1 cells co-expressing GAL1R and β-arrestin 2; 10 µM to 5 nM; (average) ratio, (n) in cell = number of assays; NA = ratio above 1000
Description: as §1

[6] = In vitro stability in rat serum; type: in vitro ADME; settings: rat, serum, pH 7.4
Description: At various time points (0, 30, 90, 270, and 1410 min), 180 µl of samples were quenched with 10 µl 10% TFA and 20 µl 100% ACN. Samples were centrifuged and kept on ice. The amount of full-length peptides in the serum was analyzed using a C12 column (C12 RP 250 × 4.60 mm column, Phenomenex) on a JASCO HPLC system and applying a gradient of 10–90% ACN in 0.1% TFA for 45 min. Peptides were detected at 280 nm. A280 areas in chromatograms of the corresponding GAL-(1–15) and M89b full-length peptide peaks were used to determine the amount of peptide left after incubation with 5% rat serum at the different time points. Peptide peaks were determined using JASCO-Borwin Chromatography software (v1.50).

Solubility [1]: improved solubility
Stimulation of GAL1R, luciferase reporter (GAL1R [2]): inability to stimulate
EC50 ratios to Gal-(1-15), GAL2R Ca-efflux (GAL2R [3]): 1.4 (3)
EC50 ratios to Gal-(1-15), GAL2R ß-Arrestin (GAL2R [4]): 1.7 (3)
half-life at 10 µM [6]: > 24 h
metabolised at 23.5 h, 10 µM [6]: 40%
remaining at 23.5 h, 10 µM [6]: ~60%
Compound: CC(C)C[C@H](NC(=O)[C@H](CC(C)C)NC(=O)[C@H](Cc1ccc(O)cc1)NC(=O)CNC(=O)[C@H](C)NC(=O)[C@H](C)NC(=O)[C@H](CC(N)=O)NC(=O)[C@H](CC(C)C)NC(=O)[C@H](CC(N)=O)NC(=O)[C@H](Cc1c[nH]c2ccccc12)NC(=O)[C@@H]1CCC(=O)N1)C(=O)N[C@@H](C)C(=O)N[C@H]1C(=O)N[C@@H](Cc2c[nH]cn2)C(=O)N[C@@H](C)C(=O)N[C@H](C(=O)NCC(=O)O)CS[C@H]1C [Variant M89b, G1pE-T3N-S6A-G12A-methyllanthionine[13–16]-galanin-(1–17)] ([pGlu]WNLNAAGYLLA[dAbu(3S-yl)]HACG-OH; thioether 13-16; C-terminus assumed)
EC50 ratios to Gal-(1-15), GAL1R ß-Arrestin (GAL1R [5]): NA (3) (NA is not active; ratios above 1000 were considered to be not active)
